{"source": "patent US20090246153A1", "about": "“COSMETIC COMPOSITIONS FOR THE INHIBITION OF REACTIVE OXYGEN SPECIES” (Nu Skin International, Inc., priority 2008, published 2009)", "key": {"[1]": {"tested_on": "arNOX", "assay": "arNOX inhibition: superoxide formation measured by reduction of ferric cytochrome c, serum or buffy coats", "type": "biochemical", "description": "Superoxide Production By Buffy Coats: Buffy coats, a mixture of lymphocytes and platelets. Such buffy coats are commercially available from, for example Rockland ImmunoChemicals (Gilbertsville, Pa.). The blood samples were maintained at 4° C. prior to collection and assay. Ca. 10^7 cells were added to each assay. Cell numbers were determined using a hemocytometer.\nReduction of ferric cytochrome c by superoxide was employed as a standard measure of superoxide formation (Mayo, L. A. and Cumutte, J. (1990) Meth. Enzyme. 186, 567-575. 7. Butler, J, Koppenol, W. H. and Margollash, E. (1982) J. Biol. Chem. 257, 10747). This is a widely accepted method when coupled to superoxide dismutase inhibition for the measurement of superoxide generation. The assay consists of 150 μl serum or 40 μl buffy coats in PBSG buffer (8.06 g NaCl, 0.2 g KCl, 0.18 g Na2HPO4, 0.26 g KH2PO4, 0.13 g CaCl2, 0.1 g MgCl2 1.35 g glucose dissolved in 1000 ml deionized water, adjusted to pH 7.4, filtered and stored at 4° C.) Rates were determined using an SLM Aminco DW-2000 spectrophotometer (Milton Roy, Rochester, N.Y., USA) in the dual wave length mode of operation with continuous measurements over 1 min every 1.5 min. After 45 min, test compounds were added and the reaction was continued for 45 min. After 45 min. A millimolar extinction coefficient of 19.1 cm^−1 was used for reduced ferricytochrome c. The results of the test compounds are provided in Table I. Extracts were made of the compounds in water unless otherwise indicated."}, "[2]": {"tested_on": "arNOX", "settings": "cited from earlier work"}}, "data": [{"compound": "CC1=C(/C=C/C(C)=C/C=C/C(C)=C/C=C/C=C(C)/C=C/C=C(C)/C=C/C2=C(C)C(=O)[C@@H](O)CC2(C)C)C(C)(C)C[C@H](O)C1=O", "note": "[Natural astaxanthin, astaxanthin]", "values": [{"measurement": "ArNOX ACTIVITY % OF NO ADDITION", "setting": "[1]; Ethanol, 25 μg/ml", "value": 62, "unit": "%"}, {"measurement": "INHIBITION (−) or STIMULATION (+)", "setting": "[1]; Ethanol, 25 μg/ml", "value": "−38", "unit": "%"}]}, {"compound": "COC1=C(OC)C(=O)C(C/C=C(\\C)CC/C=C(\\C)CC/C=C(\\C)CC/C=C(\\C)CC/C=C(\\C)CC/C=C(\\C)CC/C=C(\\C)CC/C=C(\\C)CC/C=C(\\C)CCC=C(C)C)=C(C)C1=O", "note": "[co-enzyme Q, ubiquinone]", "values": [{"measurement": "arNOX activity of aging cells", "setting": "[2]", "value": "inhibited"}]}, {"compound": "CC1=C(/C=C/C(C)=C/C=C/C(C)=C/C=C/C=C(C)/C=C/C=C(C)/C=C/C2=C(C)CCCC2(C)C)C(C)(C)CCC1", "note": "[β-Carotene]", "values": [{"measurement": "ArNOX ACTIVITY % OF NO ADDITION", "setting": "[1]; Ethanol, 0.25 μg/ml", "value": 73, "unit": "%"}, {"measurement": "INHIBITION (−) or STIMULATION (+)", "setting": "[1]; Ethanol, 0.25 μg/ml", "value": "−42", "unit": "%"}, {"measurement": "ArNOX ACTIVITY % OF NO ADDITION", "setting": "[1]; Ethanol, 2.5 μg/ml", "value": 50, "unit": "%"}, {"measurement": "INHIBITION (−) or STIMULATION (+)", "setting": "[1]; Ethanol, 2.5 μg/ml", "value": "−50", "unit": "%"}, {"measurement": "ArNOX ACTIVITY % OF NO ADDITION", "setting": "[1]; Ethanol, 25 μg/ml", "value": 68, "unit": "%"}, {"measurement": "INHIBITION (−) or STIMULATION (+)", "setting": "[1]; Ethanol, 25 μg/ml", "value": "−32", "unit": "%"}, {"measurement": "ArNOX ACTIVITY % OF NO ADDITION", "setting": "[1]; Water, 25 μg/ml", "value": 28, "unit": "%"}, {"measurement": "INHIBITION (−) or STIMULATION (+)", "setting": "[1]; Water, 25 μg/ml", "value": "−72", "unit": "%"}]}]}
